For the assay, the target named is T1, human TGR5 (h-TGR5) (Homo sapiens, UniProt Q8TDU6).
T1 construct: expressed in transfected cells
T1 sequence (Q8TDU6 1-330): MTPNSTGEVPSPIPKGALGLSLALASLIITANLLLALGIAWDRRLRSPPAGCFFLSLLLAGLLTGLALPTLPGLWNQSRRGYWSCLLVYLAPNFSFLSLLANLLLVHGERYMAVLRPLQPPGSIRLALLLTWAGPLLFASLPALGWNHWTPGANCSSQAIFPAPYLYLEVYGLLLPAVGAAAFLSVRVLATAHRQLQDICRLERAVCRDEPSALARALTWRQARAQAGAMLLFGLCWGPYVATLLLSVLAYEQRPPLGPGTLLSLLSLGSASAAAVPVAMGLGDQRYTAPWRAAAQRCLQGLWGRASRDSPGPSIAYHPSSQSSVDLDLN
Briefly: TGR5/CRE-Luciferiase Assay (HEK 293 hTGR5/CRE-Luc cells). Type of assay: cell-based. The following applies: h-TGR5 CRE-Luc EC50, Table 1; read-out: CRE-Luc (EC50). A digest of the protocol:
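HEK293 cells stably carrying hTGR5 and a CRE-luciferase reporter were exposed to serially diluted compounds (diluted in DMEM with 5% DMSO) for 6 h. Cells were then lysed in luciferase buffer, luminescence was read, and EC50 values were derived from dose-response curves.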

The structures appear in SMILES notation.

The EC50 is the concentration needed to bring the measured effect to its halfway point.

For the compound `CC(C)(c1ccc(Cl)c(Cl)c1)c1cnc(S(=O)(=O)NCc2ccc(C(F)(F)F)cc2F)n1-c1ccc(F)cc1` [5-[1-(3,4-dichlorophenyl)-1-methylethyl]-1-(4-fluorophenyl)-N-{[2-fluoro-4-(trifluoromethyl)phenyl]methyl}-1H-imidazole-2-sulfonamide], the EC50 was 0.1 to 1 µM.

On to `CC(C)(c1ccc(Cl)c(Cl)c1)c1cnc(S(=O)(=O)Cc2c(F)cccc2Cl)n1-c1ccc(F)cc1Cl` [1-(2-chloro-4-fluorophenyl)-2-{[(2-chloro-6-fluorophenyl)methyl]sulfonyl}-5-[1-(3,4-dichlorophenyl)-1-methylethyl]-1H-imidazole], for which the EC50 was in the range of 1 to 10 µM.

As for `CC(C)(c1ccc(OCC(=O)O)c(Cl)c1)c1cnc(SCc2ccc(F)cc2Cl)n1-c1ccc(F)cc1` [[(2-chloro-4-{1-[2-{[(2-chloro-4-fluorophenyl)methyl]thio}-1-(4-fluorophenyl)-1H-imidazol-5-yl]-1-methylethyl}phenyl)oxy]acetic acid], the EC50 fell in the range of 1 to 10 µM.

Regarding `COc1ccc(C(C)(C)c2c(-c3ccc(F)cc3)nc(SCc3c(F)cccc3Cl)n2C)cc1OC` [5-{1-[3,4-bis(methyloxy)phenyl]-1-methylethyl}-2-{[(2-chloro-6-fluorophenyl)methyl]thio}-4-(4-fluorophenyl)-1-methyl-1H-imidazole], the EC50 was 1 to 10 µM.

With `CC(C)(c1ccc(Cl)c(Cl)c1)c1cnc(SCc2ccc(C(N)=O)cc2F)n1-c1ccc(F)cc1` [4-[({5-[1-(3,4-dichlorophenyl)-1-methylethyl]-1-(4-fluorophenyl)-1H-imidazol-2-yl}thio)methyl]-3-fluorobenzamide], the EC50 was in the range of 0.1 to 1 µM.

Consider `CC(C)(c1ccc(F)cc1)c1cnc(SCc2ccc(S(=O)(=O)NC(=O)NN3CCCC3)cc2Cl)n1-c1ccc(F)c(F)c1` [3-chloro-4-[({1-(3,4-difluorophenyl)-5-[1-(4-fluorophenyl)-1-methylethyl]-1H-imidazol-2-yl}thio)methyl]-N-[(pyrrolidin-1-ylamino)carbonyl]benzenesulfonamide], for which the EC50 lay within 1 to 10 µM.

For the compound `CC(C)(Oc1cc(-n2c(C(C)(C)c3ccc(Cl)c(Cl)c3)cnc2SCc2ccc(F)cc2Cl)ccc1F)C(=O)O` [2-{[5-(2-{[(2-chloro-4-fluorophenyl)methyl]thio}-5-[1-(3,4-dichlorophenyl)-1-methylethyl]-1H-imidazol-1-yl)-2-fluorophenyl]oxy}-2-methylpropanoic acid], the EC50 lay within 1 to 10 µM.

Regarding `CC(C)(c1ccc(Cl)c(Cl)c1)c1c(Cl)nc(SCc2c(F)cccc2Cl)n1-c1ccc(F)cc1` [4-chloro-2-{[(2-chloro-6-fluorophenyl)methyl]thio}-5-[1-(3,4-dichlorophenyl)-1-methylethyl]-1-(4-fluorophenyl)-1H-imidazole], the EC50 fell in the range of 0.1 to 1 µM.

Consider `CC(C)(c1ccc(Cl)c(Cl)c1)c1cnc(/C=C/c2c(F)cccc2Cl)n1-c1ccc(F)cc1` [2-[(E)-2-(2-chloro-6-fluorophenyl)ethenyl]-5-[1-(3,4-dichlorophenyl)-1-methylethyl]-1-(4-fluorophenyl)-1H-imidazole], for which the EC50 was in the range of 1 to 10 µM.

Turning to `CC(C)n1c(C(C)(C)c2ccc(Cl)c(Cl)c2)cnc1SCc1c(F)cccc1Cl` [2-{[(2-chloro-6-fluorophenyl)methyl]thio}-5-[1-(3,4-dichlorophenyl)-1-methylethyl]-1-(1-methylethyl)-1H-imidazole], the EC50 lay within 1 to 10 µM.

`CC(C)(c1ccc(Cl)c(Cl)c1)c1cnc(S(=O)(=O)Nc2ccc(F)cc2Cl)n1-c1ccc(F)cc1` [N-(2-chloro-4-fluorophenyl)-5-[1-(3,4-dichlorophenyl)-1-methylethyl]-1-(4-fluorophenyl)-1H-imidazole-2-sulfonamide]: the concentration giving a half-maximal response (EC50) lay in the range of 1 to 10 µM.

In the case of `CC(C)(c1ccc(Cl)c(Cl)c1)c1cnc(SCc2ccc(F)cc2C(N)=O)n1-c1ccc(F)cc1` [2-[({5-[1-(3,4-dichlorophenyl)-1-methylethyl]-1-(4-fluorophenyl)-1H-imidazol-2-yl}thio)methyl]-5-fluorobenzamide], the EC50 lay in the range of 0.1 to 1 µM.

For the compound `CC1CCc2cc(F)ccc2N1S(=O)(=O)c1ncc(C(C)(C)c2ccc(Cl)c(Cl)c2)n1-c1ccc(F)cc1` (stereo not shown) [1-({5-[1-(3,4-dichlorophenyl)-1-methylethyl]-1-(4-fluorophenyl)-1H-imidazol-2-yl}sulfonyl)-6-fluoro-2-methyl-1,2,3,4-tetrahydroquinoline], the EC50 was 1 to 10 µM.

In the case of `CC(C)(c1ccc(Cl)c(Cl)c1)c1cnc(SCc2c(F)cc(C(=O)O)cc2F)n1-c1ccc(F)c(CO)c1` [4-[({5-[1-(3,4-dichlorophenyl)-1-methylethyl]-1-[4-fluoro-3-(hydroxymethyl)phenyl]-1H-imidazol-2-yl}thio)methyl]-3,5-difluorobenzoic acid], the EC50 is 0.1 to 1 µM.

In the case of `CC(C)(c1ccc(Cl)c(Cl)c1)c1cnc(SCc2ccc(F)cc2Cl)n1-c1ccc(N2CCOCC2)cc1` [4-[4-(2-{[(2-chloro-4-fluorophenyl)methyl]thio}-5-[1-(3,4-dichlorophenyl)-1-methylethyl]-1H-imidazol-1-yl)phenyl]morpholine], the EC50 was in the range of 1 to 10 µM.

For the compound `CC(C)(c1ccc(Cl)c(Cl)c1)c1cnc(SCC2CCN(c3ccc(F)cc3)CC2)n1-c1ccc(F)cc1` [4-[({5-[1-(3,4-dichlorophenyl)-1-methylethyl]-1-(4-fluorophenyl)-1H-imidazol-2-yl}thio)methyl]-1-(4-fluorophenyl)piperidine], the EC50 was 1 to 10 µM.

`CC(C)(c1ccc(S(C)(=O)=O)cc1)c1cnc(SCc2ccc(S(=O)(=O)NC(=O)NN3CCCC3)cc2Cl)n1-c1ccc(F)cn1` [3-chloro-4-({[1-(5-fluoropyridin-2-yl)-5-{1-methyl-1-[4-(methylsulfonyl)phenyl]ethyl}-1H-imidazol-2-yl]thio}methyl)-N-[(pyrrolidin-1-ylamino)carbonyl]benzenesulfonamide]: the EC50 lay within 1 to 10 µM.

As for `CCN(CC)CCOc1cc(C(C)(C)c2cnc(SCc3c(F)cccc3Cl)n2-c2ccc(F)cc2)ccc1Cl` [2-[(2-chloro-5-{1-[2-{[(2-chloro-6-fluorophenyl)methyl]thio}-1-(4-fluorophenyl)-1H-imidazol-5-yl]-1-methylethyl}phenyl)oxy]-N,N-diethylethanamine], the EC50 was in the range of 0.1 to 1 µM.

As for `COc1ccc(C(C)(C)c2cnc(C(=O)Nc3ccc(F)cc3Cl)n2-c2ccc(F)cc2)cc1OC` [5-{1-[3,4-bis(methyloxy)phenyl]-1-methylethyl}-N-(2-chloro-4-fluorophenyl)-1-(4-fluorophenyl)-1H-imidazole-2-carboxamide], the EC50 was 1 to 10 µM.

With `CC(=O)c1ccc(OCc2ncc(C(C)(C)c3ccc(Cl)c(Cl)c3)n2-c2ccc(F)cc2)c(Cl)c1` [1-{3-chloro-4-[({5-[1-(3,4-dichlorophenyl)-1-methylethyl]-1-(4-fluorophenyl)-1H-imidazol-2-yl}methyl)oxy]phenyl}ethanone], the EC50 is 1 to 10 µM.

As to `CC(C)(c1ccc(Cl)c(Cl)c1)c1cnc(SCc2ccc(F)c(C(=O)NCC(F)(F)F)c2)n1-c1ccc(F)cc1` [5-[({5-[1-(3,4-dichlorophenyl)-1-methylethyl]-1-(4-fluorophenyl)-1H-imidazol-2-yl}thio)methyl]-2-fluoro-N-(2,2,2-trifluoroethyl)benzamide], the EC50 was in the range of 0.1 to 1 µM.

Turning to `COc1ccc(C(C)(C)c2cnc(SCc3ccc(F)c(Cl)c3)n2-c2ccc(F)cc2)cc1OC` [5-{1-[3,4-bis(methyloxy)phenyl]-1-methylethyl}-2-{[(3-chloro-4-fluorophenyl)methyl]thio}-1-(4-fluorophenyl)-1H-imidazole], the EC50 was < 0.1 µM.

For `CC(C)(c1ccc(F)c(F)c1)c1cnc(SCc2ccc(F)c(C(=O)O)c2)n1-c1ccc(F)cc1` [5-[({5-[1-(3,4-difluorophenyl)-1-methylethyl]-1-(4-fluorophenyl)-1H-imidazol-2-yl}thio)methyl]-2-fluorobenzoic acid], the EC50 lay in the range of 0.1 to 1 µM.

Turning to `COc1ccc(C(C)(C)c2cnc(CNc3ccc(F)cc3Cl)n2-c2ccc(F)cc2)cc1OC` [N-{[5-{1-[3,4-bis(methyloxy)phenyl]-1-methylethyl}-1-(4-fluorophenyl)-1H-imidazol-2-yl]methyl}-2-chloro-4-fluoroaniline], the EC50 is < 0.1 µM.

Regarding `CC(C)(c1ccc2c(c1)OCCO2)c1cnc(SCc2c(F)cccc2Cl)n1-c1ccc(F)cc1` [2-{[(2-chloro-6-fluorophenyl)methyl]thio}-5-[1-(2,3-dihydro-1,4-benzodioxin-6-yl)-1-methylethyl]-1-(4-fluorophenyl)-1H-imidazole], the EC50 was < 0.1 µM.

Take `CC(C)(Oc1cc(F)ccc1CSc1ncc(C(C)(C)c2ccc(Cl)c(Cl)c2)n1-c1ccc(F)cc1)C(=O)O` [2-({2-[({5-[1-(3,4-dichlorophenyl)-1-methylethyl]-1-(4-fluorophenyl)-1H-imidazol-2-yl}thio)methyl]-5-fluorophenyl}oxy)-2-methylpropanoic acid]: the EC50 fell in the range of 1 to 10 µM.

Regarding `CC(C)(O)c1ccc(CSc2ncc(C(C)(C)c3ccc(Cl)c(Cl)c3)n2-c2ccc(F)cc2)c(Cl)c1` [2-{3-chloro-4-[({5-[1-(3,4-dichlorophenyl)-1-methylethyl]-1-(4-fluorophenyl)-1H-imidazol-2-yl}thio)methyl]phenyl}propan-2-ol], the EC50 lay within 0.1 to 1 µM.

In the case of `CC(C)(c1ccc(Cl)c(Cl)c1)c1cnc(SCc2cc(S(N)(=O)=O)ccc2Cl)n1-c1ccc(F)cc1` [4-chloro-3-[({5-[1-(3,4-dichlorophenyl)-1-methylethyl]-1-(4-fluorophenyl)-1H-imidazol-2-yl}thio)methyl]benzenesulfonamide], the EC50 was 0.1 to 1 µM.
